Source: patent US9090576B2, “2-substituted-p-quinone derivatives for treatment of oxidative stress diseases” (Edison Pharmaceuticals, Inc., priority 2008, dated 2015)
Where two headings read alike, the source gives them in different places.

Tests used:
Assay type in all cases: cell-based
[1] = system: human dermal fibroblasts from LHON patients; experiment: Rescue of BSO-stressed fibroblasts from LHON patients (screen as Example A); settings: Fibroblast, read-out: EC50, protection against LHON
Description: (§1) A culture with FRDA fibroblasts was started from a 1 ml vial with approximately 500,000 cells stored in liquid nitrogen. Cells were propagated in 10 cm cell culture dishes by splitting every third day in a ratio of 1:3 until nine plates were available. Once confluent, fibroblasts were harvested. For 54 micro titer plates (96 well-MTP) a total of 14.3 million cells (passage eight) were re-suspended in 480 ml medium, corresponding to 100 μl medium with 3,000 cells/well. The remaining cells were distributed in 10 cm cell culture plates (500,000 cells/plate) for propagation. The plates were incubated overnight at 37° C. in an atmosphere with 95% humidity and 5% CO2 to allow attachment of the cells to the culture plate.
(§2) MTP medium (243 μl) was added to a well of the microtiter plate. The test compounds were unfrozen, and 7.5 μl of a 5 mM stock solution was dissolved in the well containing 243 μl medium, resulting in a 150 μM master solution. Serial dilutions from the master solution were made. The period between the single dilution steps was kept as short as possible (generally less than 1 second).
(§3) Plates were kept overnight in the cell culture incubator. The next day, 10 μl of a 10 mM BSO solution were added to the wells, resulting in a 1 mM final BSO concentration. Forty-eight hours later, three plates were examined under a phase-contrast microscope to verify that the cells in the 0% control (wells E1-H1) were clearly dead. The medium from all plates was discarded, and the remaining liquid was removed by gently tapping the plate inversed onto a paper towel.
(§4) 100 μl of PBS containing 1.2 μM Calcein AM were then added to each well. The plates were incubated for 50-70 minutes at room temperature. After that time the PBS was discarded, the plate gently tapped on a paper towel and fluorescence (excitation/emission wavelengths of 485 nm and 525 nm, respectively) was read on a Gemini fluorescence reader. Data was imported into Microsoft Excel (EXCEL is a registered trademark of Microsoft Corporation for a spreadsheet program) and used to calculate the EC50 concentration for each compound.
(§5) Compounds of the invention were screened as described in Example A, but substituting FRDA cells with Leber's Hereditary Optic Neuropathy (LHON) cells obtained from the Coriell Cell Repositories (Camden, N.J.; repository number GM03858). The compounds were tested for their ability to rescue human dermal fibroblasts from LHON patients from oxidative stress.

[2] = system: human dermal fibroblasts from Huntington's patients; experiment: Rescue of BSO-stressed fibroblasts from Huntington's patients (screen as Example A); settings: Fibroblast, read-out: EC50, protection against Huntington's
Description: as §1, §2, §3, §4
as §5, with “tested using the screen” for “screened”, “Huntington's” for “Leber's Hereditary Optic Neuropathy (LHON)”, “GM 04281).” for “GM03858).”, “Huntington's” for “LHON”

[3] = system: Human dermal fibroblasts from Friedreich's Ataxia patients; experiment: Rescue of BSO-stressed FRDA fibroblasts (Calcein AM viability); settings: BSO-stressed FRDA fibroblasts (GM04078)
Description: An initial screen was performed to identify compounds effective for the amelioration of redox disorders. Test samples, 4 reference compounds (Idebenone, decylubiquinone, Trolox and α-tocopherol acetate), and solvent controls were tested for their ability to rescue FRDA fibroblasts stressed by addition of L-buthionine-(S,R)-sulfoximine (BSO), as described in Jauslin et al., Hum. Mol. Genet. 11(24):3055 (2002), Jauslin et al., FASEB J. 17:1972-4 (2003), and International Patent Application WO 2004/003565. […] This specific BSO-mediated cell death can be prevented by administration of antioxidants or molecules involved in the antioxidant pathway, such as α-tocopherol, selenium, or small molecule glutathione peroxidase mimetics. However, antioxidants differ in their potency, i.e. the concentration at which they are able to rescue BSO-stressed FRDA fibroblasts.
MEM (a medium enriched in amino acids and vitamins, catalog no. 1-31F24-I) and Medium 199 (M199, catalog no. 1-21F22-I) with Earle's Balanced Salts, without phenol red, were purchased from Bioconcept. Fetal Calf Serum was obtained from PAA Laboratories. Basic fibroblast growth factor and epidermal growth factor were purchased from PeproTech. Penicillin-streptomycin-glutamine mix, L-buthionine (S,R)-sulfoximine, (+)-α-tocopherol acetate, decylubiquinone, and insulin from bovine pancreas were purchased from Sigma. Trolox (6-hydroxy-2,5,7,8-tetramethylchromane-2-carboxylic acid) was obtained from Fluka. Idebenone was obtained from Chemo Iberica. Calcein AM was purchased from Molecular Probes. Cell culture medium was made by combining 125 ml M199 EBS, 50 ml Fetal Calf Serum, 100 U/ml penicillin, 100 μg/ml streptomycin, 2 mM glutamine, 10 μg/ml insulin, 10 ng/ml EGF, and 10 ng/ml bFGF; MEM EBS was added to make the volume up to 500 ml. A 10 mM BSO solution was prepared by dissolving 444 mg BSO in 200 ml of medium with subsequent filter-sterilization. During the course of the experiments, this solution was stored at +4° C. The cells were obtained from the Coriell Cell Repositories (Camden, N.J.; repository number GM04078) and grown in 10 cm tissue culture plates. Every third day, they were split at a 1:3 ratio.
The test samples were supplied in 1.5 ml glass vials. The compounds were diluted with DMSO, ethanol or PBS to result in a 5 mM stock solution. Once dissolved, they were stored at −20° C. Reference antioxidants (Idebenone, decylubiquinone, α-tocopherol acetate and trolox) were dissolved in DMSO.
Test samples were screened according to the following protocol:
as §1, §2
as §3, with “The medium from all plates was discarded, and the remaining liquid was removed by gently tapping the plate inversed onto a paper towel.” left out

[4] = BSO-stressed LHON fibroblasts (GM03858), less than about 150 nM
[5] = BSO-stressed Huntington's fibroblasts (GM 04281), less than about 150 nM
[6] = less than about 150 nM, read-out: EC50, protection against FRDA
[7] = 1 mM BSO, 48 h, first of three experiments, read-out: EC50 Value 1
[8] = 1 mM BSO, 48 h, second of three experiments, read-out: EC50 Value 2
[9] = 1 mM BSO, 48 h, third of three experiments, read-out: EC50 Value 3
[10] = average of three experiments, read-out: EC50 Average

CC1=C(C)C(=O)C(CCCC(=O)N2CCC(F)(F)CC2)=C(C)C1=O [2-(4-(4,4-difluoropiperidin-1-yl)-4-oxobutyl)-3,5,6-trimethylcyclohexa-2,5-diene-1,4-dione]
EC50 [1, 4]: < 150 nM

CC1=C(C)C(=O)C(CCC(C)C(=O)N2CCC(F)CC2)=C(C)C1=O (centres unmarked) [2-(4-(4-fluoropiperidin-1-yl)-3-methyl-4-oxobutyl)-3,5,6-trimethylcyclohexa-2,5-diene-1,4-dione]
EC50 [2, 5]: < 150 nM
EC50 [1, 4]: < 150 nM

CC1=C(C)C(=O)C(CCC(C)C(N)=O)=C(C)C1=O (centres unmarked) [2-methyl-4-(2,4,5-trimethyl-3,6-dioxocyclohexa-1,4-dienyl)butanamide]
EC50 [1, 4]: < 150 nM

CC1=C(C)C(=O)C(CCCC(=O)NCCc2ccccn2)=C(C)C1=O [N-(2-(pyridin-2-yl)ethyl)-4-(2,4,5-trimethyl-3,6-dioxocyclohexa-1,4-dienyl)butanamide]
EC50 [2, 5]: < 150 nM
EC50 [1, 4]: < 150 nM

CC1=C(C)C(=O)C(CCNC(=O)N2CCC(O)CC2)=C(C)C1=O [4-hydroxy-N-(2-(2,4,5-trimethyl-3,6-dioxocyclohexa-1,4-dienyl)ethyl)piperidine-1-carboxamide]
EC50 [1, 4]: < 150 nM

CC1=C(C)C(=O)C(CCNC(=O)c2cccnc2)=C(C)C1=O [N-(2-(2,4,5-trimethyl-3,6-dioxocyclohexa-1,4-dienyl)ethyl)nicotinamide]
EC50 [1, 4]: < 150 nM

CCNC(=O)N(C)CCC1=C(C)C(=O)C(C)=C(C)C1=O [3-Ethyl-1-methyl-1-(2-(2,4,5-trimethyl-3,6-dioxocyclohexa-1,4-dienyl)ethyl)urea]
EC50 [3, 6]: < 150 nM

Cc1c(C)c2c(c(C)c1O)CCC(C)(C(=O)O)O2 (centres unmarked) [Trolox, 6-hydroxy-2,5,7,8-tetramethylchromane-2-carboxylic acid, reference compound]
EC50 [3, 7]: 9000 nM
EC50 [3, 8]: 9000 nM
EC50 [3, 9]: 8000 nM
EC50 [3, 10]: 8700 nM

CCCNC(=O)C(C)CCC1=C(C)C(=O)C(C)=C(C)C1=O (centres unmarked) [2-methyl-N-propyl-4-(2,4,5-trimethyl-3,6-dioxocyclohexa-1,4-dienyl)butanamide]
EC50 [2, 5]: < 150 nM

CCCCCCCCCCC1=C(C)C(=O)C(OC)=C(OC)C1=O [Decylubiquinone, decylubiquinone, reference compound]
EC50 [3, 7]: 50 nM
EC50 [3, 8]: 35 nM
EC50 [3, 9]: 30 nM
EC50 [3, 10]: 38 nM

CC1=C(C)C(=O)C(CCNC(=O)N2CCCCC2)=C(C)C1=O [N-(2-(2,4,5-trimethyl-3,6-dioxocyclohexa-1,4-dienyl)ethyl)piperidine-1-carboxamide]
EC50 [3, 6]: < 150 nM

CC1=C(C)C(=O)C(CCCC(=O)N2CCN(C(=O)C3CCCCC3)CC2)=C(C)C1=O [2-(4-(4-(cyclohexanecarbonyl)piperazin-1-yl)-4-oxobutyl)-3,5,6-trimethylcyclohexa-2,5-diene-1,4-dione]
EC50 [1, 4]: < 150 nM

CC1=C(C)C(=O)C(CCNC(=O)N2CCC(=O)CC2)=C(C)C1=O [4-Oxo-N-(2-(2,4,5-trimethyl-3,6-dioxocyclohexa-1,4-dienyl)ethyl)piperidine-1-carboxamide]
EC50 [2]: < 150 nM
EC50 [1]: < 150 nM

CC(=O)Oc1c(C)c(C)c2c(c1C)CCC(C)(CCC[C@H](C)CCC[C@H](C)CCCC(C)C)O2 (stereo partly drawn) [alpha-Tocopherol acetate, (+)-α-tocopherol acetate, reference compound]
EC50 [3, 7]: 400 nM
EC50 [3, 8]: 150 nM
EC50 [3, 9]: 350 nM
EC50 [3, 10]: 300 nM

COC1=C(OC)C(=O)C(CCCCCCCCCCO)=C(C)C1=O [Idebenone, reference compound]
EC50 [3, 7]: 1500 nM
EC50 [3, 8]: 1000 nM
EC50 [3, 9]: 1000 nM
EC50 [3, 10]: 1200 nM

CC1=C(C)C(=O)C(CCC(C)C(=O)N2CCC(O)CC2)=C(C)C1=O (centres unmarked) [2-(4-(4-hydroxypiperidin-1-yl)-3-methyl-4-oxobutyl)-3,5,6-trimethylcyclohexa-2,5-diene-1,4-dione]
EC50 [3, 6]: < 150 nM

CC1=C(C)C(=O)C(CCNC(=O)C(O)c2ccccc2)=C(C)C1=O (centres unmarked) [2-hydroxy-2-phenyl-N-(2-(2,4,5-trimethyl-3,6-dioxocyclohexa-1,4-dienyl)ethyl)acetamide]
EC50 [3, 6]: < 150 nM
EC50 [1, 4]: < 150 nM

CC1=C(C)C(=O)C(CCCC(=O)N2CCCC2)=C(C)C1=O [2,3,5-trimethyl-6-(4-oxo-4-(pyrrolidin-1-yl)butyl)cyclohexa-2,5-diene-1,4-dione]
EC50 [3, 6]: < 150 nM

CC(=O)N1CCN(C(=O)NCCC2=C(C)C(=O)C(C)=C(C)C2=O)CC1 [4-acetyl-N-(2-(2,4,5-trimethyl-3,6-dioxocyclohexa-1,4-dienyl)ethyl)piperazine-1-carboxamide]
EC50 [2, 5]: < 150 nM
EC50 [1, 4]: < 150 nM

CC1=C(CCNC(=O)C2CCC(F)(F)CC2)C(=O)C(c2ccc(Cl)cc2)=C(C)C1=O [N-(2-(5-(4-chlorophenyl)-2,4-dimethyl-3,6-dioxocyclohexa-1,4-dienyl)ethyl)-4,4-difluorocyclohexanecarboxamide]
EC50 [3, 6]: < 150 nM
EC50 [1, 4]: < 150 nM

CC1=C(C)C(=O)C(CCCC(=O)N2CCN(C(=O)c3ccccc3)CC2)=C(C)C1=O [2-(4-(4-benzoylpiperazin-1-yl)-4-oxobutyl)-3,5,6-trimethylcyclohexa-2,5-diene-1,4-dione]
EC50 [1, 4]: < 150 nM

CCNC(=O)NCCC1=C(C)C(=O)C(C)=C(c2ccc(Cl)cc2)C1=O [1-(2-(5-(4-chlorophenyl)-2,4-dimethyl-3,6-dioxocyclohexa-1,4-dienyl)ethyl)-3-ethylurea]
EC50 [3, 6]: < 150 nM
EC50 [1, 4]: < 150 nM

CC1=C(C)C(=O)C(CCCC(=O)N2CCC(F)CC2)=C(C)C1=O [2-(4-(4-fluoropiperidin-1-yl)-4-oxobutyl)-3,5,6-trimethylcyclohexa-2,5-diene-1,4-dione]
EC50 [1, 4]: < 150 nM

CC1=C(C)C(=O)C(CCNC(=O)C(O)c2ccc(Cl)cc2)=C(C)C1=O (centres unmarked) [2-(4-chlorophenyl)-2-hydroxy-N-(2-(2,4,5-trimethyl-3,6-dioxocyclohexa-1,4-dienyl)ethyl)acetamide]
EC50 [2, 5]: < 150 nM
EC50 [1, 4]: < 150 nM
